Assays:
Experiment in all cases: Kinase profiling in a biochemical assay panel (mobility shift assays and ELISA), %-inhibition at 1 μM; selectivity entropy
[1] = target: panel of more than 300 wild-type and mutant kinases (313 kinase panel) (Homo sapiens, UniProt P06213)
[2] = target: panel of more than 300 wild-type and mutant kinases (313 kinase panel) (Homo sapiens, UniProt P07947)
[3] = target: panel of more than 300 wild-type and mutant kinases (313 kinase panel) (Homo sapiens, UniProt P23443)
[4] = target: panel of more than 300 wild-type and mutant kinases (313 kinase panel) (Homo sapiens, UniProt P30291)
Chain of panel of more than 300 wild-type and mutant kinases (313 kinase panel) (Homo sapiens, UniProt P30291) (P30291 whole entry, change not shown): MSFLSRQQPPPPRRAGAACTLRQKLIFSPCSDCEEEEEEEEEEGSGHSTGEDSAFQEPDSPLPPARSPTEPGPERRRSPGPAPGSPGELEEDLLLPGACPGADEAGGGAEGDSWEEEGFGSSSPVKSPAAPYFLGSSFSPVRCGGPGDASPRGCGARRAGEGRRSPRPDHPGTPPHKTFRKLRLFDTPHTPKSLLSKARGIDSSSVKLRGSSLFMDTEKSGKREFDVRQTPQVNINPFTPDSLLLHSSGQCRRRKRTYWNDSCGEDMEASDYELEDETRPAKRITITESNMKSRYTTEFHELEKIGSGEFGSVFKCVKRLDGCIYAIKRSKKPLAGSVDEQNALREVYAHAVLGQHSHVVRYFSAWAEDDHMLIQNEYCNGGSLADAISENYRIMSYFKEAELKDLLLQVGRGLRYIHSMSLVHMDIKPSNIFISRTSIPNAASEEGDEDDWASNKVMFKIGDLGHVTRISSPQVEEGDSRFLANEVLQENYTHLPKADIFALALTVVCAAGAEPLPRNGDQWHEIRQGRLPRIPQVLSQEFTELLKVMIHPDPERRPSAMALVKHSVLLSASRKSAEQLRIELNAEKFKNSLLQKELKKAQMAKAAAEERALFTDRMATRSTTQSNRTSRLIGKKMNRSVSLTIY

[5] = target: T1, panel of more than 300 wild-type and mutant kinases (313 kinase panel) (Homo sapiens, UniProt P42681); conditions: kinase TXK; compound at 1 μM
T1 sequence (P42681 1-527): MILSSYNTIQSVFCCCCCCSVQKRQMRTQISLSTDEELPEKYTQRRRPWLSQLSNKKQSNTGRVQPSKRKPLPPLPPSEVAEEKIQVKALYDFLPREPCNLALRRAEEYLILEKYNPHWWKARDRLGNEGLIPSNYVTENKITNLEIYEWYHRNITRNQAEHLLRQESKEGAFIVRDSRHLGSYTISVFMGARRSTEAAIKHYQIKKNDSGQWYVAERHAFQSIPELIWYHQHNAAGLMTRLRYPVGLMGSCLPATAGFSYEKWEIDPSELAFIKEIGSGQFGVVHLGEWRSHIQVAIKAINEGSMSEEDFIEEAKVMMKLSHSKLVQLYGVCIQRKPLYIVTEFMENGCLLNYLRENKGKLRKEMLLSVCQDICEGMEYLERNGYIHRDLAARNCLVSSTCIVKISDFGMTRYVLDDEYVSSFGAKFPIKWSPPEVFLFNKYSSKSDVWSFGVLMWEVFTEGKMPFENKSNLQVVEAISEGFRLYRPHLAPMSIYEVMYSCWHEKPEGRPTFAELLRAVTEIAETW

[6] = target: panel of more than 300 wild-type and mutant kinases (313 kinase panel) (Homo sapiens, UniProt P51812)
[7] = target: panel of more than 300 wild-type and mutant kinases (313 kinase panel) (Homo sapiens, UniProt Q00535)
Chain of panel of more than 300 wild-type and mutant kinases (313 kinase panel) (Homo sapiens, UniProt Q00535) (Q00535 whole entry, change not shown): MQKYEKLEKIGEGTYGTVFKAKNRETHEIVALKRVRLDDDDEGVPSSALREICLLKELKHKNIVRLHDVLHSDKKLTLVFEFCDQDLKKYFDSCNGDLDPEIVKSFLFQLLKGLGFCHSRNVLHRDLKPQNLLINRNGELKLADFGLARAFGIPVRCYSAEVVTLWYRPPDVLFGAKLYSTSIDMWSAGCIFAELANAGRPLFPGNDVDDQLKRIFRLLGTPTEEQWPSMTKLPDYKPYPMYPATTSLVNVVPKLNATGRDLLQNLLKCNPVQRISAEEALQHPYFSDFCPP

[8] = target: panel of more than 300 wild-type and mutant kinases (313 kinase panel) (Homo sapiens, UniProt Q05397); conditions: kinase FAK; compound at 1 μM
[9] = target: panel of more than 300 wild-type and mutant kinases (313 kinase panel) (Homo sapiens, UniProt Q13555)
[10] = target: T2, panel of more than 300 wild-type and mutant kinases (313 kinase panel) (Homo sapiens, UniProt Q99759)
T2 sequence (Q99759 1-626): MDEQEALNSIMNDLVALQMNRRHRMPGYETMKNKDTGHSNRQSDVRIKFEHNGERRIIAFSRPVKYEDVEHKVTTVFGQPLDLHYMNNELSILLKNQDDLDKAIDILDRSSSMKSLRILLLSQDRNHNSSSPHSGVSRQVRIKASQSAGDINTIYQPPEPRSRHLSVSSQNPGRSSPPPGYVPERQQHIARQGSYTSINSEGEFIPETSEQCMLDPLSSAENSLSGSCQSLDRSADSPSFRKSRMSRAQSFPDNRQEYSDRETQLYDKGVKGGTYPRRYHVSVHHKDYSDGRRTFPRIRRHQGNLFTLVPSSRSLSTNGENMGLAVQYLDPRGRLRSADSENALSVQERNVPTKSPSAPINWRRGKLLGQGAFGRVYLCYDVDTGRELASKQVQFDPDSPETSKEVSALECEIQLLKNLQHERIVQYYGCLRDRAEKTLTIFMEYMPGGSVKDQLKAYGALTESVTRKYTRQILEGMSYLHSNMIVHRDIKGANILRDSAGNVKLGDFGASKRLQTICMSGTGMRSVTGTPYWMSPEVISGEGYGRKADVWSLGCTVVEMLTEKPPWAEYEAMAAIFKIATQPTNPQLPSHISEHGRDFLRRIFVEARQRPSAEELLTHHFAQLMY

[11] = target: panel of more than 300 wild-type and mutant kinases (313 kinase panel) (Homo sapiens, UniProt Q9P286)
Chain of panel of more than 300 wild-type and mutant kinases (313 kinase panel) (Homo sapiens, UniProt Q9P286) (Q9P286 whole entry, change not shown): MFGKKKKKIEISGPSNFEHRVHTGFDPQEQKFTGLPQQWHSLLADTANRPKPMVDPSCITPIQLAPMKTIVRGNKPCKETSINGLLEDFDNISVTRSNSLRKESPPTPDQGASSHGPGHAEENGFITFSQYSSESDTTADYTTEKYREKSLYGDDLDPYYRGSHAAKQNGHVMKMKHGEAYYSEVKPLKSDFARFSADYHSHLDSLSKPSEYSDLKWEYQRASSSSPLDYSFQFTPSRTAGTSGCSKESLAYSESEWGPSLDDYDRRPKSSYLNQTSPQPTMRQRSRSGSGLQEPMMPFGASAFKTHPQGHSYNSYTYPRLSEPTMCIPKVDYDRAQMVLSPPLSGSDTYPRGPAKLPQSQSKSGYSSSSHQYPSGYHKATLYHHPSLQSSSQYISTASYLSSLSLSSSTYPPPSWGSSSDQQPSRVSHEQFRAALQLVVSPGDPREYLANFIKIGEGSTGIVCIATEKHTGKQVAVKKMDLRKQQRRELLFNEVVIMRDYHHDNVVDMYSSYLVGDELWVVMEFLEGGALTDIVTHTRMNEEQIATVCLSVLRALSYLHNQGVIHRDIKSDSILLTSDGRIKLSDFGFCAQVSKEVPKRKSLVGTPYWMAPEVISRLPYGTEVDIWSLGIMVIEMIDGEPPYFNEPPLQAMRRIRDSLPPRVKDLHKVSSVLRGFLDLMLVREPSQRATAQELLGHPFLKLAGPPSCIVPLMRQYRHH

[12] = target: panel of more than 300 wild-type and mutant kinases (313 kinase panel) (Homo sapiens, UniProt Q02750)
[13] = target: panel of more than 300 wild-type and mutant kinases (313 kinase panel) (Homo sapiens, UniProt Q96SB4)
Chain of panel of more than 300 wild-type and mutant kinases (313 kinase panel) (Homo sapiens, UniProt Q96SB4) (Q96SB4 whole entry, change not shown): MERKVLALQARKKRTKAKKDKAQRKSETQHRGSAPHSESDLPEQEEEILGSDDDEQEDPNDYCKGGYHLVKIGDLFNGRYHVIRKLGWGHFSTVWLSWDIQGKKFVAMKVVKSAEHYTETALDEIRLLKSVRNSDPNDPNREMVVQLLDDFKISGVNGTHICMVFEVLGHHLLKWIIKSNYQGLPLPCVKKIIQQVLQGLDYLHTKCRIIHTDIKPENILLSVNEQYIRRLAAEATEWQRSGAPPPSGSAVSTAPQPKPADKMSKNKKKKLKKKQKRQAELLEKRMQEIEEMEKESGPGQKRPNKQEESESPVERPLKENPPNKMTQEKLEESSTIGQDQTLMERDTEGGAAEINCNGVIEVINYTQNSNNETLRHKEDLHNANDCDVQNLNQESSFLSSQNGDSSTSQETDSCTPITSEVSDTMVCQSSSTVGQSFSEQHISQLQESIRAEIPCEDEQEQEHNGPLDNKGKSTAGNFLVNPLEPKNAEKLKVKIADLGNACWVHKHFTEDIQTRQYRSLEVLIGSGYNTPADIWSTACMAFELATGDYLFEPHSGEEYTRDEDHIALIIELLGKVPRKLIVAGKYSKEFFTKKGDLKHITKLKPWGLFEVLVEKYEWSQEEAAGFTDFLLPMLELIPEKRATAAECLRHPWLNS

[14] = target: panel of more than 300 wild-type and mutant kinases (313 kinase panel) (Homo sapiens, UniProt Q9H2X6)
[15] = kinase MAP3K3, compound at 1 μM
[16] = kinase MAP2K1, compound at 1 μM

Chain of panel of more than 300 wild-type and mutant kinases (313 kinase panel) (Homo sapiens, UniProt P06213) (P06213 28-1382, change not shown): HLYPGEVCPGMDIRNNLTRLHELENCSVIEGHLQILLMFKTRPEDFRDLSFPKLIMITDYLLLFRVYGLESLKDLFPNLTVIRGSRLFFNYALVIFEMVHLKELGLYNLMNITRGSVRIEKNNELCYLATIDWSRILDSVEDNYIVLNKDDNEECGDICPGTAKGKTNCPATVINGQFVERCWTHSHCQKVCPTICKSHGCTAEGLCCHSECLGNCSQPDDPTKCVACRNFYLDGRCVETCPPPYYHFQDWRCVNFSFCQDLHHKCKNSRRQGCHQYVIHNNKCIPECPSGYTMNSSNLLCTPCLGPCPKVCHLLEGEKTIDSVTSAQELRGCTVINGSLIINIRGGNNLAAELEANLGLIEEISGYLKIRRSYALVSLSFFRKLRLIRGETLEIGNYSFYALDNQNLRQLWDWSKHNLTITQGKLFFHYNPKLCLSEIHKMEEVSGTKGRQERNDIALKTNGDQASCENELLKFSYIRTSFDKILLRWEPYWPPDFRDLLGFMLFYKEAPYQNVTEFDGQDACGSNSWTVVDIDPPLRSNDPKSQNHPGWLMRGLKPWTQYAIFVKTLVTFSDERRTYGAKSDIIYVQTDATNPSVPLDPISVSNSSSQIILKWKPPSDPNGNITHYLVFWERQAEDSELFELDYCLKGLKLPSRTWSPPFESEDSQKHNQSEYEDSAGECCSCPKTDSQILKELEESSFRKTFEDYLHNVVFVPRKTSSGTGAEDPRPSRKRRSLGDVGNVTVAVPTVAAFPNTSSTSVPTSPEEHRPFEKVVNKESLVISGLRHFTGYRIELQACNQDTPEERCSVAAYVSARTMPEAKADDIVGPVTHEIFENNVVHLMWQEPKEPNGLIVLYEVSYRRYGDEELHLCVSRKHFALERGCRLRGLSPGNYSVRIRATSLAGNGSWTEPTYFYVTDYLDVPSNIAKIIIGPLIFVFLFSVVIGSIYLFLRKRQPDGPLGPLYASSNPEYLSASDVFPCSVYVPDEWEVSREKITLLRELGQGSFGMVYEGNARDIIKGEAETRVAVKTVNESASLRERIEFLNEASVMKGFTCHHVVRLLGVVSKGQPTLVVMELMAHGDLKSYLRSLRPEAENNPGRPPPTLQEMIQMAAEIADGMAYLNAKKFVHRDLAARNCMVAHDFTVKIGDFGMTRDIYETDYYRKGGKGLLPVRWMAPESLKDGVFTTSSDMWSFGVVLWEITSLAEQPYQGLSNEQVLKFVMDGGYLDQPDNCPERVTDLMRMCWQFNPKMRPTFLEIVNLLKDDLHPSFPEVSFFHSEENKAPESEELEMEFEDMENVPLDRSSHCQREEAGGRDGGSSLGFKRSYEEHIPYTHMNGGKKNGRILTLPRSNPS
Chain of panel of more than 300 wild-type and mutant kinases (313 kinase panel) (Homo sapiens, UniProt P07947) (P07947 whole entry, change not shown): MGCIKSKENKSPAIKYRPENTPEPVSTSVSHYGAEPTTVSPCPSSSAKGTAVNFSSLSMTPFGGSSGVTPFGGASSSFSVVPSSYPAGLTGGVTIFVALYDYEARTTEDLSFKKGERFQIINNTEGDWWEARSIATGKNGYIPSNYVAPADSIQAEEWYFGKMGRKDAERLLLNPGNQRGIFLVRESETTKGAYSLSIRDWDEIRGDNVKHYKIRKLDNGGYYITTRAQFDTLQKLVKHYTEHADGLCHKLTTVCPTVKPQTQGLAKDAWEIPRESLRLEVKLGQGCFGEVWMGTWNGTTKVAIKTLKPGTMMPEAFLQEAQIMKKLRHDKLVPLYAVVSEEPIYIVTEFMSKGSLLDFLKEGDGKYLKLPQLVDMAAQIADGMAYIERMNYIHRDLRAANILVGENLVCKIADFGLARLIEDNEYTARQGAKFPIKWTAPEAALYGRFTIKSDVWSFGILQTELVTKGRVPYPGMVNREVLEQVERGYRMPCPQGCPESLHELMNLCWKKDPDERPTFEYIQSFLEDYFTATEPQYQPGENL

COc1cc(Nc2c(C#N)cnc3cc(OCCCN4CCN(C)CC4)c(OC)cc23)c(Cl)cc1Cl [bosutinib]
%-inhibition of INSR ([1]; kinase INSR, compound at 1 μM): 65%
%-inhibition of YES ([2]; kinase YES, compound at 1 μM): 97%
%-inhibition of p70S6K ([3]; kinase p70S6K, 1 μM): 43%
%-inhibition of WEE1 ([4]; kinase WEE1, compound at 1 μM): 98%
%-inhibition of TXK [5]: 72%
%-inhibition of RSK2 ([6]; 1 µM): 41%
%-inhibition, CDK5/p25 ([7]; kinase CDK5/p25, 1 μM compound): -25%
%-inhibition of FAK [8]: 22%
%-inhibition, CaMK2γ ([9]; 1 µM): 8%
%-inhibition of MAP3K3 [10, 15]: 91%
%-inhibition of PAK5 ([11]; kinase PAK5, 1 μM): 17%

COc1cc2nccc(Oc3ccc(NC(=O)C4(C(=O)Nc5ccc(F)cc5)CC4)cc3)c2cc1OC [cabozantinib]
%-inhibition of INSR ([1]; kinase INSR, compound at 1 μM): 35%
%-inhibition of YES ([2]; kinase YES, compound at 1 μM): 90%
%-inhibition of p70S6K ([3]; kinase p70S6K, 1 μM): 8%
%-inhibition of WEE1 ([4]; kinase WEE1, compound at 1 μM): 5.45%
%-inhibition of TXK [5]: 18%
%-inhibition of RSK2 ([6]; kinase RSK2, 1 μM): -3.61%
%-inhibition, CDK5/p25 ([7]; kinase CDK5/p25, 1 μM compound): -14%
%-inhibition of MAP2K1 [12, 16]: 82%
%-inhibition of FAK [8]: 10%
%-inhibition, CaMK2γ ([9]; kinase CaMK2γ, 1 μM compound): -8%
%-inhibition of SRPK1 ([13]; kinase SRPK1, 1 μM): 37%
%-inhibition of MAP3K3 [10, 15]: 9%
%-inhibition of HIPK2 ([14]; kinase HIPK2, compound at 1 μM): 60%
%-inhibition of PAK5 ([11]; kinase PAK5, 1 μM): -2.51%

C[C@@H](Oc1cc(-c2cnn(C3CCNCC3)c2)cnc1N)c1c(Cl)ccc(F)c1Cl [crizotinib]
%-inhibition of YES ([2]; kinase YES, compound at 1 μM): 65%
%-inhibition of p70S6K ([3]; kinase p70S6K, 1 μM): 40%
%-inhibition of WEE1 ([4]; kinase WEE1, compound at 1 μM): 12%
%-inhibition of TXK [5]: 39%
%-inhibition of RSK2 ([6]; kinase RSK2, 1 μM): 0.217%
%-inhibition, CDK5/p25 ([7]; kinase CDK5/p25, 1 μM compound): -8%
%-inhibition of MAP2K1 [12, 16]: 0.819%
%-inhibition of FAK [8]: 90%
%-inhibition, CaMK2γ ([9]; kinase CaMK2γ, 1 μM compound): -10%
%-inhibition of SRPK1 ([13]; kinase SRPK1, 1 μM): 4.55%
%-inhibition of HIPK2 ([14]; kinase HIPK2, compound at 1 μM): -6.53%
%-inhibition of PAK5 ([11]; kinase PAK5, 1 μM): 7%

CC(C)(C)c1nc(-c2cccc(NS(=O)(=O)c3c(F)cccc3F)c2F)c(-c2ccnc(N)n2)s1 [dabrafenib]
%-inhibition of INSR ([1]; kinase INSR, compound at 1 μM): 7.51%
%-inhibition of WEE1 ([4]; kinase WEE1, compound at 1 μM): 0.651%
%-inhibition of TXK [5]: 18%
%-inhibition, CDK5/p25 ([7]; kinase CDK5/p25, 1 μM compound): 22%
%-inhibition of FAK [8]: 13%
%-inhibition, CaMK2γ ([9]; kinase CaMK2γ, 1 μM compound): -5.47%
%-inhibition of MAP3K3 [10, 15]: 6%
%-inhibition of HIPK2 ([14]; kinase HIPK2, compound at 1 μM): 42%
%-inhibition of PAK5 ([11]; kinase PAK5, 1 μM): 21%

Cc1nc(Nc2ncc(C(=O)Nc3c(C)cccc3Cl)s2)cc(N2CCN(CCO)CC2)n1 [dasatinib]
%-inhibition of p70S6K ([3]; kinase p70S6K, 1 μM): 11%
%-inhibition, CDK5/p25 ([7]; kinase CDK5/p25, 1 μM compound): 4.63%
%-inhibition, CaMK2γ ([9]; kinase CaMK2γ, 1 μM compound): -3.57%
%-inhibition of SRPK1 ([13]; kinase SRPK1, 1 μM): -2.17%
%-inhibition of MAP3K3 [10, 15]: 88%
%-inhibition of HIPK2 ([14]; kinase HIPK2, compound at 1 μM): 6%

C#Cc1cccc(Nc2ncnc3cc(OCCOC)c(OCCOC)cc23)c1 [erlotinib]
%-inhibition of INSR ([1]; 1 µM): 4%
%-inhibition of YES ([2]; 1 µM): 51%
%-inhibition of p70S6K ([3]; 1 µM): 10%
%-inhibition of WEE1 ([4]; 1 µM): 20%
%-inhibition of RSK2 ([6]; 1 µM): 6.4%
%-inhibition, CDK5/p25 ([7]; 1 µM): 8%
%-inhibition of MAP2K1 ([12]; 1 µM): 26%
%-inhibition, CaMK2γ ([9]; 1 µM): 3%
%-inhibition of SRPK1 ([13]; 1 µM): -1.67%
%-inhibition of MAP3K3 ([10]; 1 µM): 17%
%-inhibition of HIPK2 ([14]; 1 µM): 10%
%-inhibition of PAK5 ([11]; 1 µM): -0.141%

CO[C@H]1C[C@@H]2CC[C@@H](C)[C@@](O)(O2)C(=O)C(=O)N2CCCC[C@H]2C(=O)O[C@H]([C@H](C)C[C@@H]2CC[C@@H](OCCO)[C@H](OC)C2)CC(=O)[C@H](C)/C=C(\C)[C@@H](O)[C@@H](OC)C(=O)[C@H](C)C[C@H](C)/C=C/C=C/C=C/1C [everolimus]
%-inhibition of INSR ([1]; kinase INSR, compound at 1 μM): -3.77%
%-inhibition of YES ([2]; kinase YES, compound at 1 μM): 0%
%-inhibition of p70S6K ([3]; kinase p70S6K, 1 μM): -13%
%-inhibition of WEE1 ([4]; kinase WEE1, compound at 1 μM): 7%
%-inhibition of TXK [5]: -4.36%
%-inhibition of RSK2 ([6]; kinase RSK2, 1 μM): -1.35%
%-inhibition, CDK5/p25 ([7]; kinase CDK5/p25, 1 μM compound): -26%
%-inhibition of MAP2K1 [12, 16]: 7.5%
%-inhibition of FAK [8]: -4%
%-inhibition, CaMK2γ ([9]; kinase CaMK2γ, 1 μM compound): -16%
%-inhibition of SRPK1 ([13]; kinase SRPK1, 1 μM): 1.69%
%-inhibition of MAP3K3 [10, 15]: 3.6%
%-inhibition of HIPK2 ([14]; kinase HIPK2, compound at 1 μM): -6%
%-inhibition of PAK5 ([11]; kinase PAK5, 1 μM): -1.87%

O=S(=O)(c1cccc2cnccc12)N1CCCNCC1 [fasudil]
%-inhibition of INSR ([1]; kinase INSR, compound at 1 μM): -11%
%-inhibition of YES ([2]; kinase YES, compound at 1 μM): 1.18%
%-inhibition of p70S6K ([3]; kinase p70S6K, 1 μM): 38%
%-inhibition of WEE1 ([4]; kinase WEE1, compound at 1 μM): -0.258%
%-inhibition of TXK [5]: 1%
%-inhibition of MAP2K1 [12, 16]: 5.3%
%-inhibition of FAK [8]: -4%
%-inhibition, CaMK2γ ([9]; kinase CaMK2γ, 1 μM compound): -3.38%
%-inhibition of SRPK1 ([13]; kinase SRPK1, 1 μM): -5.38%
%-inhibition of MAP3K3 [10, 15]: -14%
%-inhibition of HIPK2 ([14]; kinase HIPK2, compound at 1 μM): -1.86%
%-inhibition of PAK5 ([11]; kinase PAK5, 1 μM): -6.61%

Cc1ccc(C(=O)Nc2ccc(CN3CCN(C)CC3)c(C(F)(F)F)c2)cc1C#Cc1cnc2cccnn12 [ponatinib]
%-inhibition of INSR ([1]; kinase INSR, compound at 1 μM): 43%
%-inhibition of YES ([2]; kinase YES, compound at 1 μM): 101%
%-inhibition of p70S6K ([3]; kinase p70S6K, 1 μM): 101%
%-inhibition of WEE1 ([4]; kinase WEE1, compound at 1 μM): 2.14%
%-inhibition of TXK [5]: 98%
%-inhibition of RSK2 ([6]; kinase RSK2, 1 μM): 30%
%-inhibition, CDK5/p25 ([7]; kinase CDK5/p25, 1 μM compound): -20%
%-inhibition of MAP3K3 [10, 15]: 88%
%-inhibition of PAK5 ([11]; kinase PAK5, 1 μM): -0.481%

CCN(CC)CCNC(=O)c1c(C)[nH]c(/C=C2\C(=O)Nc3ccc(F)cc32)c1C [sunitinib]
%-inhibition of YES ([2]; kinase YES, compound at 1 μM): 99%
%-inhibition of p70S6K ([3]; kinase p70S6K, 1 μM): 88%
%-inhibition of MAP2K1 [12, 16]: 89%
%-inhibition of SRPK1 ([13]; kinase SRPK1, 1 μM): 5%
%-inhibition of MAP3K3 [10, 15]: 76%
%-inhibition of PAK5 ([11]; kinase PAK5, 1 μM): 35%

COc1cc2c(Nc3ccc(Br)cc3F)ncnc2cc1OCC1CCN(C)CC1 [vandetanib]
%-inhibition of INSR ([1]; kinase INSR, compound at 1 μM): 3.63%
%-inhibition of YES ([2]; kinase YES, compound at 1 μM): 100%
%-inhibition of WEE1 ([4]; kinase WEE1, compound at 1 μM): 1.73%
%-inhibition of TXK [5]: 60%
%-inhibition of RSK2 ([6]; kinase RSK2, 1 μM): 5.7%
%-inhibition, CDK5/p25 ([7]; kinase CDK5/p25, 1 μM compound): -25%
%-inhibition of MAP2K1 [12, 16]: 10%
%-inhibition of FAK [8]: -2.11%
%-inhibition, CaMK2γ ([9]; kinase CaMK2γ, 1 μM compound): -13%
%-inhibition of SRPK1 ([13]; kinase SRPK1, 1 μM): 3%
%-inhibition of MAP3K3 [10, 15]: 9%
%-inhibition of HIPK2 ([14]; kinase HIPK2, compound at 1 μM): -11%
%-inhibition of PAK5 ([11]; kinase PAK5, 1 μM): -3.26%
